Paper PMC9508239 (Nature Communications, 2022)
“And” between values parts separate entries of the source, which are not always exact repeats. Equal entries are not always repeated.

Assays:
SREBP1 = assay: Nuclear translocation of SREBP1 in primary mouse hepatocytes; type: cell-based; conditions: 100 nM, 30 min
Protocol: Primary hepatocytes were isolated from 2-month-old male mice with a standard two-step collagenase perfusion procedure as described earlier with some modifications[24],[48],[49]. […] After 1–2 s upon the appearance of white spots in the liver, we cut the portal vein with scissors to wash out blood, and then the liver was perfused with 30 ml of Liver Digest Medium (Thermo Scientific, Cat. #17703034). The dissected liver was gently washed with low-glucose DMEM and transferred to a sterile culture dish containing 15 ml Liver Digest Medium. The isolated liver cells were filtered through the 70 μm cell strainer into a 50 ml tube. After centrifuging at 50×g for 5 min at 4 °C, cells were washed with cold low-glucose DMEM three times. […] After 2 h, the medium was changed to serum-free low-glucose DMEM.
Primary hepatocytes were described in the primary hepatocyte isolation section. […] Cells were fixed with 4% paraformaldehyde for 10 min. The fixed cells were incubated with PBS for 30 min and 3% BSA in PBS with 0.1% Triton X-100 (0.1% PBST) for 1 h, and then treated with anti-SREBP1 antibodies (20B12, Millipore, Cat. #MABS1987, 1:200) in 3% BSA in 0.1% PBST at 4 °C overnight. After being washed, cells were incubated with secondary antibodies (Alexa Fluor 488 goat anti-rabbit, Invitrogen, Cat. #A11008, 1:200) for 1 h. […]

IR R14A = assay: Auto-phosphorylation of IR in 293FT cells expressing IR R14A; type: cell-based, human
Protocol: (§1) For the activation assay, the short isoform of human IR in pCS2-MYC was used as described previously[20],[49]. Plasmid transfections into 293FT cells were performed with Lipofectamin^TM 2000 (Invitrogen).
(§2) The cells were incubated with the lysis buffer B [50 mM Hepes pH 7.4, 150 mM NaCl, 10% Glycerol, 1% Triton X-100, 1 mM EDTA, 100 mM sodium fluoride, 2 mM sodium orthovanadate, 20 mM sodium pyrophosphate, 0.5 mM dithiothreitol (DTT), 2 mM phenylmethylsulfonyl fluoride (PMSF)] supplemented with cOmplete Protease Inhibitor Cocktail (Roche), PhosSTOP (Sigma), and 25 U/ml turbo nuclease (Accelagen) on ice for 1 h. After centrifuging at 20,817×g at 4 °C for 10 min, the concentrations of cell lysate were measured using Micro BCA Protein Assay Kit (Thermo Scientific). About 50–60 μg total proteins were analyzed by SDS-PAGE and quantitative Western blotting. […] For quantitative western blots, anti-rabbit immunoglobulin G (IgG) (H + L) (WB, 1:5000; Dylight 800 conjugates, Cat. #5151) and anti-mouse IgG (H + L) (WB, 1:5000; Dylight 680 conjugates, Cat. #5470) (Cell Signaling) were used as secondary antibodies. […]

IR D707A = assay: Auto-phosphorylation of IR in 293FT cells expressing IR D707A; type: cell-based, human
Protocol: as §1, §2

IR = assay: Functional IR levels in liver after treatment (Fig. S10e,f); type: in vivo, mouse
Protocol: as §2
For the oral glucose tolerance test, mice were fasted for 6 h and their blood glucose levels (T = 0) were measured with tail bleeding using a glucometer (AlphaTRAK). […] Blood glucose levels were measured at the indicated time points after glucose administration. […]

[1] = Body weight after chronic treatment, before OGTT; type: in vivo, mouse
Protocol: For the oral glucose tolerance test, mice were fasted for 6 h and their blood glucose levels (T = 0) were measured with tail bleeding using a glucometer (AlphaTRAK). After then, glucose (2 g/kg body weight) was administered by oral gavage. Blood glucose levels were measured at the indicated time points after glucose administration. For Fig. S10f, 2 months old male mice were fasted for 14 h. […] One hour later, livers were collected.

IR F96A = assay: Auto-phosphorylation of IR in 293FT cells expressing IR F96A; type: cell-based, human; conditions: 10 nM, 10 min
Protocol: as §1, §2

IR-D707A = assay: IR signaling (pY IR, pAKT, pERK) in IR-D707A MEFs; type: cell-based, mouse
Protocol: IR^F/F mice (Jackson #006955[71]) were crossed with CAG-CRE/ERT mice (Jackson #004682) to generate IR^F/F; CRE-ERT mice. The IR^F/F; CRE-ERT mice were backcrossed nine generations to C57BL/6 (Jackson #000664). The MEFs from IR^F/F; CRE-ERT mice were isolated as described earlier with some modifications. E14.5 embryos were minced with sterile scalpels and incubated with 0.25% trypsin-EDTA for 10 min at 37 °C and a 5% CO2 incubator. Fresh 0.25% trypsin-EDTA was added. After 10 min incubation, cells were put into fresh DMEM containing supplemented 10% (v/v) FBS, 2 mM L-glutamine, 55 μM β-mercaptoethanol, and 1% penicillin/streptomycin, and then centrifuged at 290×g for 5 min. After the supernatant was removed, the cells were resuspended in the DMEM and incubated at 37 °C and 5% CO2 incubator. The medium was changed the next day to remove debris and floating cells.
Viral supernatants were collected at 2 days and 3 days after transfection, concentrated with a concentrator, and added to IR^F/F; CRE-ERT MEFs with 4 μg/ml of polybrene. Cells were selected with 2 μg/ml of puromycin 2 days after infection.
as §1
The cells were incubated with the lysis buffer B [50 mM Hepes pH 7.4, 150 mM NaCl, 10% Glycerol, 1% Triton X-100, 1 mM EDTA, 100 mM sodium fluoride, 2 mM sodium orthovanadate, 20 mM sodium pyrophosphate, 0.5 mM dithiothreitol (DTT), 2 mM phenylmethylsulfonyl fluoride (PMSF)] supplemented with cOmplete Protease Inhibitor Cocktail (Roche), PhosSTOP (Sigma), and 25 U/ml turbo nuclease (Accelagen) on ice for 1 h. After centrifuging at 20,817×g at 4 °C for 10 min, the concentrations of cell lysate were measured using Micro BCA Protein Assay Kit (Thermo Scientific). About 50–60 μg total proteins were analyzed by SDS-PAGE and quantitative Western blotting. The following antibodies were purchased from commercial sources: Anti-IR-pY1150/1151 (WB, 1:1000; 19H6; labeled as pY IR, Cat. #3024), anti-AKT (WB, 1:1000; 40D4, Cat. #2920), anti-pS473 AKT (WB, 1:1000; D9E, Cat. #4060), anti-ERK1/2 (WB, 1:1000; L34F12, Cat. #4696), anti-pERK1/2 (WB, […]; 197G2, Cat. #4377), anti-IRS1-pS616 (WB, 1:1000; C15H5, Cell Signaling, Cat. #3203); anti-IRS1 (WB, 1:1000; A301-158A, Bethyl Laboratory); anti-IR (WB, 1:500, CT-3, Santa Cruz; labeled as IR for primary hepatocytes and MEFs, Cat. #sc-57342); anti-IR (WB, 1:1000; EPR23566-103; labeled as IR for Fig. S10, ab278100, Abcam); anti-Myc (WB, 1:2000; 9E10, Cat. #11667149001, Roche; labeled as IR for 293FT cells). For quantitative western blots, anti-rabbit immunoglobulin G (IgG) (H + L) (WB, 1:5000; Dylight 800 conjugates, Cat. #5151) and anti-mouse IgG (H + L) (WB, 1:5000; Dylight 680 conjugates, Cat. #5470) (Cell Signaling) were used as secondary antibodies. The membranes were scanned with the Odyssey Infrared Imaging System (Li-COR, Lincoln, NE).

IR R345A = assay: Auto-phosphorylation of IR in 293FT cells expressing IR R345A; type: cell-based, human
Protocol: as §1, §2

In the case of “insulin: native IR ligand used as comparator; Humulin in the in vivo tests”, the “nuclear translocation of SREBP1” value (SREBP1) is reported as “stimulated to the same level by insulin and S597”, the IR activation (IR R14A) is reported as “reduced insulin-dependent IR activation” and the IR activation (IR D707A) is reported as “reduced insulin-dependent IR activation”. For the same substance, the IR downregulation (IR; 50U/kg, i.p., 3 consecutive days) was “not significantly downregulated”, the IR downregulation (IR; one hour after insulin 0.1U/kg or S597 0.15U/kg) was “not significantly downregulated” and the “Body weight before OGTT” value ([1]; 50U/kg body weight, i.p., once daily for three days, male C57BL/6J, individual mice, N = 5, listed as Ins, in g (unit assumed)) was 19.9 and 21.6. For the same substance, the “Body weight, significance” value ([1]; 50U/kg once daily for three days, two-tailed Student's t-test) was “No significant”, the IR activation (IR F96A) was “defective insulin-dependent activation” and the “phosphorylation of AKT” value (IR-D707A) was “greatly reduced”. For the same substance, the “phosphorylation of ERK” value (IR-D707A) was “greatly reduced”, the “phosphorylation of IR” value (IR-D707A) was “remarkedly reduced” and the pAKT (IR-D707A; high concentration of insulin) was “significantly increased pAKT and pERK”. For the same substance, the pERK (IR-D707A; high concentration of insulin) was “significantly increased pAKT and pERK” and the IR activation (IR R345A) was “largely diminished IR activation by insulin”.
